Reference: PubChem BioAssay (NCI)
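Where inhibition never reached the appropriate level, the endpoint shown equals the highest concentration tested. Otherwise, values were interpolated linearly from a five-concentration, 48-hour dose response in 96-well plates. The concentration for full growth arrest is given as TGI.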

How the values were obtained:
Assay in all cases: DTP human tumour cell line panel, 48 h
786-0 renal = tested on: 786-0 renal
A498 renal = tested on: A498 renal
A549 NSCLC = tested on: A549 NSCLC
ACHN renal = tested on: ACHN renal
BT-549 breast = tested on: BT-549 breast
CAKI-1 renal = tested on: CAKI-1 renal
CCRF-CEM leukemia = tested on: CCRF-CEM leukemia
COLO 205 colon = tested on: COLO 205 colon
DU-145 prostate = tested on: DU-145 prostate
EKVX NSCLC = tested on: EKVX NSCLC
HCC-2998 colon = tested on: HCC-2998 colon
HCT-116 colon = tested on: HCT-116 colon
HCT-15 colon = tested on: HCT-15 colon
HL-60(TB) leukemia = tested on: HL-60(TB) leukemia
HOP-62 NSCLC = tested on: HOP-62 NSCLC
HOP-92 NSCLC = tested on: HOP-92 NSCLC
HS 578T breast = tested on: HS 578T breast
HT29 colon = tested on: HT29 colon
IGROV1 ovarian = tested on: IGROV1 ovarian
K-562 leukemia = tested on: K-562 leukemia
KM12 colon = tested on: KM12 colon
LOX IMVI melanoma = tested on: LOX IMVI melanoma
MALME-3M melanoma = tested on: MALME-3M melanoma
MCF7 breast = tested on: MCF7 breast
MDA-MB-231 breast = tested on: MDA-MB-231 breast
MDA-MB-435 = tested on: MDA-MB-435
MDA-N = tested on: MDA-N
MOLT-4 leukemia = tested on: MOLT-4 leukemia
NCI-H226 lung = tested on: NCI-H226 lung
NCI-H23 lung = tested on: NCI-H23 lung
NCI-H460 lung = tested on: NCI-H460 lung
NCI-H522 lung = tested on: NCI-H522 lung
NCI/ADR-RES ovarian = tested on: NCI/ADR-RES ovarian
OVCAR-3 ovarian = tested on: OVCAR-3 ovarian
OVCAR-4 ovarian = tested on: OVCAR-4 ovarian
OVCAR-5 ovarian = tested on: OVCAR-5 ovarian
OVCAR-8 ovarian = tested on: OVCAR-8 ovarian
PC-3 prostate = tested on: PC-3 prostate
RPMI-8226 leukemia = tested on: RPMI-8226 leukemia
RXF 393 renal = tested on: RXF 393 renal
SF-268 CNS = tested on: SF-268 CNS
SF-295 CNS = tested on: SF-295 CNS
SF-539 CNS = tested on: SF-539 CNS
SK-MEL-28 melanoma = tested on: SK-MEL-28 melanoma
SK-MEL-5 melanoma = tested on: SK-MEL-5 melanoma
SK-OV-3 ovarian = tested on: SK-OV-3 ovarian
SN12C renal = tested on: SN12C renal
SNB-75 CNS = tested on: SNB-75 CNS
SR leukemia = tested on: SR leukemia
SW-620 colon = tested on: SW-620 colon
T-47D breast = tested on: T-47D breast
TK-10 renal = tested on: TK-10 renal
U251 CNS = tested on: U251 CNS
UACC-257 melanoma = tested on: UACC-257 melanoma
UACC-62 melanoma = tested on: UACC-62 melanoma
UO-31 renal = tested on: UO-31 renal
M14 melanoma = tested on: M14 melanoma
SK-MEL-2 melanoma = tested on: SK-MEL-2 melanoma
SNB-19 CNS = tested on: SNB-19 CNS

Measured: TGI

COC(=O)c1ccc(Oc2nc3ccc(C(F)(F)F)cc3nc2-c2ccccc2)cc1
> 100 µM: 786-0 renal | A498 renal | A549 NSCLC | ACHN renal | BT-549 breast | CAKI-1 renal | CCRF-CEM leukemia | COLO 205 colon | DU-145 prostate | EKVX NSCLC | HCC-2998 colon | HCT-116 colon | HCT-15 colon | HL-60(TB) leukemia | HOP-62 NSCLC | HOP-92 NSCLC | HS 578T breast | HT29 colon | IGROV1 ovarian | K-562 leukemia | KM12 colon | LOX IMVI melanoma | MALME-3M melanoma | MCF7 breast | MDA-MB-231 breast | MDA-MB-435 | MDA-N | MOLT-4 leukemia | NCI-H226 lung | NCI-H23 lung | NCI-H460 lung | NCI-H522 lung | NCI/ADR-RES ovarian | OVCAR-3 ovarian | OVCAR-4 ovarian | OVCAR-5 ovarian | OVCAR-8 ovarian | PC-3 prostate | RPMI-8226 leukemia | RXF 393 renal | SF-268 CNS | SF-295 CNS | SF-539 CNS | SK-MEL-28 melanoma | SK-MEL-5 melanoma | SK-OV-3 ovarian | SN12C renal | SNB-75 CNS | SR leukemia | SW-620 colon | T-47D breast | TK-10 renal | U251 CNS | UACC-257 melanoma | UACC-62 melanoma | UO-31 renal

CCCCCCCCCCCCCC(=O)OCC(CCS(=O)(=O)O[C@H]1CC[C@@]2(C)C(=CC[C@@H]3C2CC[C@]2(C)C(=O)CCC32)C1)OC(=O)CCCCCCCCCCCCC (stereo partly specified)
> 100 µM: 786-0 renal | A498 renal | A549 NSCLC | ACHN renal | BT-549 breast | CAKI-1 renal | CCRF-CEM leukemia | COLO 205 colon | DU-145 prostate | EKVX NSCLC | HCC-2998 colon | HCT-116 colon | HCT-15 colon | HL-60(TB) leukemia | HOP-62 NSCLC | HOP-92 NSCLC | HS 578T breast | HT29 colon | IGROV1 ovarian | K-562 leukemia | KM12 colon | LOX IMVI melanoma | M14 melanoma | MALME-3M melanoma | MCF7 breast | MDA-MB-231 breast | MDA-MB-435 | MDA-N | NCI-H23 lung | NCI-H460 lung | NCI/ADR-RES ovarian | OVCAR-3 ovarian | OVCAR-4 ovarian | OVCAR-5 ovarian | PC-3 prostate | RPMI-8226 leukemia | RXF 393 renal | SF-268 CNS | SF-295 CNS | SF-539 CNS | SK-MEL-2 melanoma | SK-MEL-28 melanoma | SK-MEL-5 melanoma | SK-OV-3 ovarian | SN12C renal | SNB-19 CNS | SNB-75 CNS | SR leukemia | SW-620 colon | T-47D breast | TK-10 renal | U251 CNS | UACC-257 melanoma | UACC-62 melanoma | UO-31 renal
